Measurements taken from the NIST ThermoML archive (doi:10.1016/j.fluid.2015.09.019).
Numbers after ± are expanded uncertainties.

Legend:
[1] = Molar enthalpy of transition or fusion; details: Crystal; DSC
[2] = Crystal; DTA

Molar enthalpy of transition or fusion [1]: 20.3 ± 0.92 kJ/mol
Normal melting temperature [2]: 107.00 ± 1.1 °C
SMILES: CC1=CC(=O)c2ccccc2C1=O [2-methyl-1,4-naphthalenedione]
